Test results: patent US20250134890A1, “ANTIMALARIAL HEXAHYDROPYRIMIDINE ANALOGUES” (UCB BIOPHARMA SRL, priority 2022, published 2025)
Counter-ions that a name gives are not always drawn.

Tested on: Plasmodium falciparum: 3D7 strain
Test: P. falciparum 3D7 asexual blood stage assay (SYBR green readout)
Assay type: cell-based
Conditions: Plasmodium falciparum, 3D7, Erythrocyte, 72 h, P. falciparum 3D7 in human erythrocytes, 72 h incubation, SYBR green fluorescence
Excerpt: The compounds of the present invention are potent inhibitors of the growth and propagation of the Plasmodium falciparum parasite in human blood.
The assay used to measure the effect of test compounds on a bloodstream stage of Plasmodium falciparum: 3D7 strain employs SYBR green as the readout. This is a dye that binds to double stranded deoxyribonucleic acid (DNA) with a resulting increase in fluorescence, allowing detection of P. falciparum DNA in infected erythrocytes, and thereby providing a measure of parasite growth and propagation.
Erythrocytes (A+blood) were prepared for both parasite culture and assay by washing 4 times with incomplete media (15.9 g RPMI 1640 (25 mM HEPES, L-glutamine), 1 g NaHCO3, 2 g glucose, 400 μL gentacin (500 mg/mL), 2 mL hypoxanthine solution (13.6 g/L in 0.1M NaOH pH 7.3) in 1 litre of media). The cells were centrifuged at 1800 g for 5 minutes, before decanting the supernatant and re-suspending in fresh incomplete media. On the final wash, the cells were re-suspended in complete media (incomplete media with 5 g/L AlbumaxII), and centrifuged at 1800 g for 3 minutes. This cell sediment was treated as 100% haematocrit.
P. falciparum 3D7 was cultured in erythrocytes at 5% haematocrit in complete media at 37° C. (1% O2, 3% CO2, balance N2). Cultures were split on a weekly basis to achieve a 1% parasitaemia in erythrocites at 5% haematocrit in fresh media. Culture media is replaced by fresh media every other day (2 times during the week).
On day 1, test compounds were added to assay plates using Echo dispensing technology ([…] and 20 points titration). 50 nL of each compound dilution was added to 50 μL of culture (5% haematocrit, 0.5% parasitaemia) and incubated for 72 h at 37° C. (1% O2, 3% CO2, balance N2). Final concentrations of test compounds ranged from 50,000 nM to 15 nM, in […].
On day 4, 10 μL SYBR green (Invitrogen S7563 supplied as 10,000×concentrate in DMSO) pre-diluted to 3×concentrate with Lysis buffer (20 mM Tris pH 7.9, 5% EDTA, 0.16% w/v, 1.6% TX100 v/v) was added to the cultures and incubated in the dark, overnight, at room temperature.
On day 5, fluorescent signal was measured using a BioTek plate reader (excitation 485 nm, emission 528 nm). All data were processed using IDBS ActivityBase. Raw data were converted into percent inhibition through linear regression by setting the high inhibition control (mefloquine) as 100% and the no inhibition control (DMSO) as 0%. Quality control criteria for passing plates were as follows: Z′>0.5, S:B>3, % CV(no inhibition control)<15. The formula used to calculate Z′ is: […]
All EC50 curve fitting was undertaken using the following bi-phasic two site dose response using XLfit model 300 (IDBS):
where A=100 minus the top of the upper curve 1 and the bottom of lower curve; B=Hill slope; log(C)=IC50 concentration at lower site; log(D)=IC50 concentration at upper site; x=inhibitor concentration; and y=% inhibition.

Compound	IC50 [nM]
C[C@@H]1C[C@H](N2C(=N)N[C@](C)(c3cccc(-c4cccc(Cl)c4)c3Cl)CC2=O)CC[C@@H]1O (relative stereo) [Example 7, (6S)-6-[2-Chloro-3-(3-chloro-phenyl)phenyl]-3-[(1R*,3R*,4S*)-4-hydroxy-3-methylcyclohexyl]-2-imino-6-methylhexahydro-pyrimidin-4-one hydrochloride]	720
C[C@H]1C[C@@H](N2C(=N)N[C@](C)(c3cccc(-c4cccc(Cl)c4)c3Cl)CC2=O)CC[C@H]1O (relative stereo) [Example 8, (6S)-6-[2-Chloro-3-(3-chloro-phenyl)phenyl]-3-[(1S*,3S*,4R*)-4-hydroxy-3-methylcyclohexyl]-2-imino-6-methylhexahydro-pyrimidin-4-one hydrochloride]	247
CO[C@@H]1C[C@H](N2C(=N)N[C@](C)(c3cccc(-c4ccc(S(C)(=O)=O)cc4F)c3Cl)CC2=O)CCC1(F)F (relative stereo) [Example 9, (6S)-6-{2-Chloro-3-[2-fluoro-4-(methylsulfonyl)phenyl]phenyl}-3-[(1R*,3R*)-4,4-difluoro-3-methoxycyclohexyl]-2-imino-6-methylhexahydropyrimidin-4-one hydrochloride]	84
CO[C@H]1C[C@@H](N2C(=N)N[C@](C)(c3cccc(-c4ccc(S(C)(=O)=O)cc4F)c3Cl)CC2=O)CCC1(F)F (relative stereo) [Example 10, (6S)-6-{2-Chloro-3-[2-fluoro-4-(methylsulfonyl)phenyl]phenyl}-3-[(1S*,3S*)-4,4-difluoro-3-methoxy-cyclohexyl]-2-imino-6-methyl-hexahydropyrimidin-4-one hydrochloride]	6
CO[C@@H]1C[C@H](N2C(=N)N[C@](C)(c3cccc(-c4ccc(N=S(C)(C)=O)cc4F)c3Cl)CC2=O)CCC1(F)F (relative stereo) [Example 11, (6S)-6-[2-Chloro-3-(4-{[(dimethyl)-(oxo)-λ^6-sulfanylidene]amino}-2-fluorophenyl)phenyl]-3-[(1R*,3R*)-4,4-difluoro-3-methoxycyclohexyl]-2-imino-6-methylhexahydropyrimidin-4-one hydrochloride]	367
CO[C@H]1C[C@@H](N2C(=N)N[C@](C)(c3cccc(-c4ccc(N=S(C)(C)=O)cc4F)c3Cl)CC2=O)CCC1(F)F (relative stereo) [Example 12, (6S)-6-[2-Chloro-3-(4-{[(dimethyl)-(oxo)-λ^6-sulfanylidene]amino}-2-fluorophenyl)phenyl]-3-[(1S*,3S*)-4,4-difluoro-3-methoxy-cyclohexyl]-2-imino-6-methyl-hexahydropyrimidin-4-one hydrochloride]	359
C[C@@]1(c2cccc(-c3cccc(Cl)c3)c2Cl)CC(=O)N([C@H]2CCC(F)(F)[C@@H](O)C2)C(=N)N1 (relative stereo) [Example 21, (S)-6-[2,3′-Dichloro(1,1′-biphenyl)-3-yl]-3-[(1S*,3S*)-4,4-difluoro-3-hydroxycyclohexyl]-2-imino-6-methyltetrahydropyrimidin-4(1H)-one trifluoroacetic acid salt]	726
C[C@@]1(c2cccc(-c3cccc(Cl)c3)c2Cl)CC(=O)N([C@@H]2CCC(F)(F)[C@H](O)C2)C(=N)N1 (relative stereo) [Example 22, (S)-6-[2,3′-Dichloro(1,1′-biphenyl)-3-yl]-3-[(1R*,3R*)-4,4-difluoro-3-hydroxycyclohexyl]-2-imino-6-methyltetrahydropyrimidin-4(1H)-one trifluoroacetic acid salt]	154
C[C@@]1(c2cccc(-c3cncc(Cl)c3)c2Cl)CC(=O)N([C@@H]2CCC(F)(F)[C@H](O)C2)C(=N)N1 (relative stereo) [Example 23, (6S)-6-[2-Chloro-3-(5-chloro-pyridin-3-yl)phenyl]-3-[(1R*,3R*)-4,4-difluoro-3-hydroxycyclohexyl]-2-imino-6-methylhexahydro-pyrimidin-4-one hydrochloride]	158
C[C@@]1(c2cccc(-c3cccc(Cl)c3)c2Cl)CC(=O)N([C@@H]2CCC(F)(F)[C@@H](O)C2)C(=N)N1 (relative stereo) [Example 24, (6S)-6-[2-Chloro-3-(3-chloro-phenyl)phenyl]-3-[(1R*,3S*)-4,4-difluoro-3-hydroxycyclohexyl]-2-imino-6-methylhexahydro-pyrimidin-4-one trifluoroacetic acid salt]	112
C[C@@H]1C[C@H](N2C(=N)N[C@](C)(c3cccc(-c4ccc(F)cc4F)c3Cl)CC2=O)CCS1(=O)=O (relative stereo) [Example 63, (6S)-6-[2-Chloro-3-(2,4-difluoro-phenyl)phenyl]-2-imino-6-methyl-3-[(2R*,4R*)-2-methyl-1,1-dioxo-thian-4-yl]hexahydropyrimidin-4-one hydrochloride]	74
C[C@H]1C[C@@H](N2C(=N)N[C@](C)(c3cccc(-c4ccc(F)cc4F)c3Cl)CC2=O)CCS1(=O)=O (relative stereo) [Example 64, (6S)-6-[2-Chloro-3-(2,4-difluoro-phenyl)phenyl]-2-imino-6-methyl-3-[(2S*,4S*)-2-methyl-1,1-dioxo-thian-4-yl]hexahydropyrimidin-4-one hydrochloride]	207
C[C@H]1C[C@H](N2C(=N)N[C@](C)(c3cccc(-c4ccc(F)cc4F)c3Cl)CC2=O)CCS1(=O)=O (relative stereo) [Example 65, (6S)-6-[2-Chloro-3-(2,4-difluoro-phenyl)phenyl]-2-imino-6-methyl-3-[(2S*,4R*)-2-methyl-1,1-dioxo-thian-4-yl]hexahydropyrimidin-4-one hydrochloride]	1300
C[C@@H]1C[C@@H](N2C(=N)N[C@](C)(c3cccc(-c4ccc(F)cc4F)c3Cl)CC2=O)CCS1(=O)=O (relative stereo) [Example 66, (6S)-6-[2-Chloro-3-(2,4-difluoro-phenyl)phenyl]-2-imino-6-methyl-3-[(2R*,4S*)-2-methyl-1,1-dioxo-thian-4-yl]hexahydropyrimidin-4-one hydrochloride]	272
C[C@H]1C[C@@H](N2C(=N)N[C@](C)(c3cccc(-c4ccc(C5CC5)nc4)c3Cl)CC2=O)CCS1(=O)=O (relative stereo) [Example 67, (6S)-6-[2-Chloro-3-(6-cyclopropyl-pyridin-3-yl)phenyl]-2-imino-6-methyl-3-[(2S*,4S*)-2-methyl-1,1-dioxothian-4-yl]hexahydro-pyrimidin-4-one hydrochloride]	88
C[C@@H]1C[C@@H](N2C(=N)N[C@](C)(c3cccc(-c4ccc(C5CC5)nc4)c3Cl)CC2=O)CCS1(=O)=O (relative stereo) [Example 68, (6S)-6-[2-Chloro-3-(6-cyclopropyl-pyridin-3-yl)phenyl]-2-imino-6-methyl-3-[(2R*,4S*)-2-methyl-1,1-dioxothian-4-yl]hexahydro-pyrimidin-4-one hydrochloride]	1140
C[C@H]1C[C@H](N2C(=N)N[C@](C)(c3cccc(-c4ccc(C5CC5)nc4)c3Cl)CC2=O)CCS1(=O)=O (relative stereo) [Example 69, (6S)-6-[2-Chloro-3-(6-cyclopropyl-pyridin-3-yl)phenyl]-2-imino-6-methyl-3-[(2S*,4R*)-2-methyl-1,1-dioxothian-4-yl]hexahydro-pyrimidin-4-one hydrochloride]	260
C[C@@H]1C[C@H](N2C(=N)N[C@](C)(c3cccc(-c4ccc(OC(F)F)nc4)c3Cl)CC2=O)CCS1(=O)=O (relative stereo) [Example 70, (6S)-6-{2-Chloro-3-[6-(difluoro-methoxy)pyridin-3-yl]phenyl}-2-imino-6-methyl-3-[(2R*,4R*)-2-methyl-1,1-dioxothian-4-yl]-hexahydropyrimidin-4-one hydrochloride]	85

Same assay, conditions: Plasmodium falciparum, Erythrocyte; P. falciparum 3D7 in human erythrocytes, 72 h incubation, SYBR green fluorescence; read-out: IC50

IC50 [nM]	Compound
44	C[C@H]1C[C@@H](N2C(=N)N[C@](C)(c3cccc(-c4cccc([C@@H](O)C(F)(F)F)c4)c3Cl)CC2=O)CCO1 (relative stereo) [Example 27, (6S)-6-(2-Chloro-3-{3-[(1R*)-2,2,2-trifluoro-1-hydroxyethyl]-phenyl}phenyl)-2-imino-6-methyl-3-[(2S,4S)-2-methyltetrahydro-pyran-4-yl|hexahydropyrimidin-4-one hydrochloride]
